Measured values: PMC5294416, “Novel peptides for deciphering structural and signalling functions of E-cadherin in mouse embryonic stem cells” (Scientific Reports, 2017)
Entries after “also recorded” stand apart in the source; their conditions may differ.

Experiments:
[1] = biological target: T1, recombinant mouse E-Cadherin Fc Chimera (Mus musculus, UniProt P09803); assay: Biacore SPR equilibrium binding analysis (affinity capture)
T1 construct: purchased R&D Systems
Protocol: Biacore SPR analysis was used to measure the interaction between peptides and recombinant mouse E-Cadherin Fc Chimera (R&D Systems). Analytes were passed over an HTE chip with surface bound His-tagged Recombinant Mouse E-Cadherin Fc Chimera (R&D Systems). The kinetics of interaction, i.e. the rates of complex formation (ka) and dissociation (kd), were determined and Integrin α4β7 protein was used as a control. Analysis was performed by the Biomolecular Analysis Core Facility (The University of Manchester, UK) on a Proteon XPR-36 protein interaction array system (Bio-Rad) using a HTE chip for high capacity His-tagged protein capture (Bio-Rad). Equilibrium analysis runs were performed three times and an average KD was calculated. Running buffer: HBS/0.02%, Tween/2 mM, CaCl2/1 mM MgCl2.

[2] = test system: Nanog, Klf4, Tbx3, Esrrb, Nr0b1, Nr5a2 and Tet1 transcripts in wtD3 mESCs; assay: qPCR analysis of pluripotency transcript expression; type: cell-based, mouse
Protocol: (§1) Unless otherwise stated, mESC lines were grown on gelatinised tissue culture grade 6-well plates at 37 °C/5% CO2, as previously described. mESCs cells were treated with 10 μM peptide in mESC culture medium which was replenished every 24 h. Inhibition of specific pathways in mESCs was achieved by incubation with 10 μM LY294002 (PI3K inhibitor), PD9805 (MEK inhibitor) and SB431542 (TGFβ1 R inhibitor).
Primers for qPCR were designed using the Roche Applied science Universal Probe Library software and BLAST screened for sequence specificity. Only primers producing a single dissociation peak were used. RNA was extracted from mESCs and cDNA at a concentration of 2 ng/μl was used for analysis in a MicroAmp Optical 96-well Reaction Plate (Applied Biosystems) using SYBR green Jumpstart Taq ReadyMix (Applied Biosystems). Primer sequences: 18srRNA Forward (F) […], Reverse (R) […]; ESRRB F-[…], R-[…]; KLF4 F-[…], R-ATGTCCGCCAGGTTGAAG; NANOG F-[…], R-[…]; NR0B1 F-[…], R-[…]; NR5A2 F-[…], R-[…]; TBX3 F-[…], R-[…]; TET1 F-[…], R-[…].

mESCs = assay: Cell viability in monolayer culture; type: cell-based, mouse; conditions: data not shown
pERK1/2 in wtD3 mESCs = assay: Western blot analysis of phosphorylated ERK1/2; type: cell-based, mouse
[3] = test system: STAT3 phosphorylation in wtD3 mESCs; assay: Western blot analysis of phosphorylated STAT3; type: cell-based, mouse
Protocol: as §1
(§2) Cells were harvested using cell dissociation buffer, centrifuged and washed with PBS prior to lysis using Radioimmunoprecipitation (RIPA) buffer (Sigma) containing protease inhibitor cocktail tablets (1 tablet per 10 ml RIPA buffer) (Roche Applied Science) at a concentration of 2 × 10^7 cell/ml. Lysates were separated by SDS-PAGE and electrotransferred onto nitrocellulose membrane as previously described. The membrane was probed using the appropriate primary antibody with subsequent incubation with HRP-conjugated secondary antibody. The membrane was exposed to an autoradiographic film (Hyperfilm ECL, GE Healthcare, Amersham, UK) for the appropriate time period in an X-ray cassette before the film was manually developed in a dark room using Kodak GBX developer and fixer solutions (Sigma, Dorset, UK). Primary antibodies: anti-α-tubulin, 1:2000 dilution (T9026, Sigma, Dorset, UK); anti-AKT, 1:200 dilution (#9272, Cell Signalling Technology, MA, USA); anti-pAKT (Ser473), 1:200 (#4060S, Cell Signalling Technology, MA, USA); anti-STAT3, 1:200 dilution (SC-482, Santa Cruz Biotechnology Inc, TX, USA); anti-pSTAT3, 1:200 dilution (#9138S, Cell Signalling Technology, MA, USA).

[4] = test system: STAT3 phosphorylation in wtD3 mESCs; conditions: mESC; cited from earlier work
From the text: (§3) E-cadherin provides an attractive target to manipulate ESCs in culture since cell signalling mediated through this protein has significant effects on both ESC pluripotent states and survival. We have previously shown that abrogation of E-cadherin-mediated cellular aggregation allows culture of mESCs in shake flask bioreactors whilst retaining pluripotency, either through gene knockout or an inhibitory antibody DECMA-1[16]. However, utilisation of E-cadherin neutralising Abs for ESC culture is expensive and more cost-effective E-cadherin inhibitors are required before this technique becomes com ...

wtD3 mESCs [5] = conditions: mESC cell line; cited from earlier work
From the text: as §3

MCF-7 = MCF-7 cell line; cited from earlier work
From the text: as §3

[6] = test system: Akt phosphorylation in mESCs; assay: Akt phosphorylation in treated mESCs; type: cell-based, mouse; conditions: data not shown
Protocol: as §2

wtD3 mESCs [7] = assay: Loss of cell-cell contact, phase contrast microscopy; type: cell-based, mouse
Protocol: as §1

[8] = test system: NANOG protein in wtD3 mESCs; assay: Immunofluorescence microscopy analysis of NANOG protein expression; type: cell-based, mouse; conditions: 96 h / 4 days where stated
Protocol: Monolayer cultured mESCs were fixed in situ in 4% w/v PFA in PBS for 30 minutes at room temperature, washed twice with PBS and blocked with 1% goat serum in 0.1% w/v BSA, 0.1% Triton X-100 in PBS for 30 minutes. Cells were incubated in the appropriate primary antibody in goat blocking buffer for two hours at RT. Cells were washed three times in PBS and incubated in the appropriate Alexa fluor-488 or −546 conjugated secondary antibody at RT for 1 hour in the dark. Cells were washed three times with PBS, mounted in 4′6-diamidino-2-phenylindole (DAPI) (Vector Laboratories) and visualized using a Leica DM6000B fluorescence microscope (Leica Microsystems) and processed using Leica LAS X Core software (Leica Microsystems). Primary antibodies: anti-Nanog, 1:200 dilution (ab80892, Abcam Plc, Cambridge, UK); anti-Oct4, 1:200 dilution (ab19857, Abcam Plc, Cambridge, UK). […] Cells were visualized using a Leica DM6000B fluorescence microscope (Leica Microsystems) and processed using Leica LAS X Core software (Leica Microsystems).
(§4) Images were imported into ImageJ and fluorescence intensity measured using the Analyse > Measure function on areas selected using the rectangular or oval selection icons.

[9] = test system: OCT4 protein in wtD3 mESCs; assay: Immunofluorescence microscopy analysis of OCT4 protein expression with pathway inhibitors; type: cell-based, mouse
Protocol: as §1
Monolayer cultured mESCs were fixed in situ in 4% w/v PFA in PBS for 30 minutes at room temperature, washed twice with PBS and blocked with 1% goat serum in 0.1% w/v BSA, 0.1% Triton X-100 in PBS for 30 minutes. Cells were incubated in the appropriate primary antibody in goat blocking buffer for two hours at RT. Cells were washed three times in PBS and incubated in the appropriate Alexa fluor-488 or −546 conjugated secondary antibody at RT for 1 hour in the dark. Cells were washed three times with PBS, mounted in 4′6-diamidino-2-phenylindole (DAPI) (Vector Laboratories) and visualized using a Leica DM6000B fluorescence microscope (Leica Microsystems) and processed using Leica LAS X Core software (Leica Microsystems). Primary antibodies: anti-Nanog, 1:200 dilution (ab80892, Abcam Plc, Cambridge, UK); anti-Oct4, 1:200 dilution (ab19857, Abcam Plc, Cambridge, UK). For immunofluorescence microscopy analysis of fluorescent-tagged peptides, cells were incubated in 500 μM peptide in cell culture medium for 15 minutes, washed twice in ice cold PBS and mounted with Vectorshield containing DAPI. Cells were visualized using a Leica DM6000B fluorescence microscope (Leica Microsystems) and processed using Leica LAS X Core software (Leica Microsystems).
as §4

[10] = transcript, mESCs, Fig. 6a summary

With “H-SWELYYPLRANL-NH2 [Epep, H-SWELYYPLRANL-NH2]” the Kd ([1]; equilibrium analysis using affinity capture on HTE chip, peptide stock in water, average of three runs, running buffer HBS/0.02% Tween/2 mM CaCl2/1 mM MgCl2) was 3400 nM, the Kd ([1]; peptide dissolved in 10%v/v DMSO/H2O, equilibrium analysis using affinity capture) was 1150 nM and the “Transcripts restored to control levels after removal of inhibitor” value ([2]; mESCs, 24 h post-removal) was “Nanog, Esrrb, Tbx3 and Tet1”. For the same substance, the “Loss of ESRRB” value [2, 10] was “YES”, the “Loss of Klf4” value [2, 10] was “YES” and the “Loss of Nanog” value [2, 10] was “YES”. The “Loss of Nr0b1” value [2, 10] was “YES”, the “Loss of Nr5a2” value [2, 10] was “YES” and the “Loss of TBX3” value [2, 10] was “YES”. For the same substance, the “Transcripts with decreased expression compared to control (qPCR)” value ([2]; wtD3 mESCs, 10 μM peptide, 24 h) was “Nanog, Klf4, Tbx3, Esrrb, Nr0b1, Nr5a2 and Tet1”, the “Transcripts remaining significantly decreased after removal of inhibitor” value ([2]; wtD3 mESCs, 24 h following removal) was “Klf4, Nr0b1 and Nr5a2” and the “cell viability in monolayer culture” value (mESCs) was “no significant difference in cell viability”. For the same substance, the “pERK1/2 compared to untreated mESCs” value (pERK1/2 in wtD3 mESCs) was “decreased pERK1/2”, the “Loss of pStat3” value ([3]; mESCs, Fig. 6a summary) was “YES” and the “Effect on STAT3 phosphorylation (in words)” value ([3]; wtD3 mESCs vs control treated cells, western blot) was “decreased STAT3 phosphorylation within 24 h; also recorded: significantly decreased phosphorylation of STAT3”. The “phosphorylation of STAT3” value [4] was “abrogate phosphorylation of STAT3”, the “inhibition of E-cadherin mediated cell-cell contact” value (wtD3 mESCs [5]) was “inhibit E-cadherin mediated cell-cell contact” and the “inhibition of E-cadherin mediated cell-cell contact” value (MCF-7) was “inhibit E-cadherin mediated cell-cell contact”. For the same substance, the Akt phosphorylation [6] was “no changes in Akt phosphorylation”, the “Loss of cell-cell contact (10μM)?” value (wtD3 mESCs [7]; mESCs, 10 μM, Fig. 6a summary) was “YES” and the “Effect on cell-cell contact (in words)” value (wtD3 mESCs [7]; wtD3 mESCs, 10 μM peptide, 24 h, phase contrast) was “loss of cell-cell contact after 24 h; also recorded: loss of cell-cell contact within 24 h”. For the same substance, the “Cell-cell contact after removal of the inhibitor” value (wtD3 mESCs [7]; wtD3 mESCs, 24 h post-removal of treatment) was “restoration of cell-cell contact; also recorded: reversible”, the NANOG protein expression [8] was “decreased NANOG protein expression” and the “OCT4 protein expression in the presence of SB431542” value ([9]; peptide-treated wtD3 mESCs plus Activin/Nodal inhibitor SB431542, after 5 days) was “maintained expression of OCT4 protein”. For the same substance, the “OCT4 protein expression in the presence of SU5402” value ([9]; peptide-treated wtD3 mESCs plus FGFR1 inhibitor SU5402, after 5 days) was “maintained expression of OCT4 protein”.
